The target in one test is T1, Human PARP-1 enzyme (Homo sapiens, UniProt P09874).
T1 construct: purchased Trevigen
Briefly: In vitro Scintillation Proximity Assay (SPA) for PARP-1 inhibitory activity. The settings on record: read-out: in vitro SPA assay PARP-1 pIC50 (converted). The test is classed as biochemical. In short, it runs like this: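 SPA assay: nicked-DNA-activated PARP-1 (0.1–0.2 μg/ml) ADP-ribosylates biotinylated histones (2 μg/ml) using [3H]-NAD+, 20 min at RT in Tris pH 8/DTT/MgCl2, stopped with 2 mM NAD+. Blank-subtracted cpm expressed as % control; IC50 by linear interpolation, reported as pIC50 (10−5 to 3×10−9 M tested).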
(In a scintillation proximity assay essentially only radioactivity close to the scintillant gives light.)

For the next test, the system named is PC-3 cells. The test is described as follows: Antiproliferative activity, Alamar Blue assay, PC-3 cells. The test is classed as cell-based, human. The settings on record: Homo sapiens, PC-3, PC3 cells, Alamar Blue; read-out: PC3 antiproliferative activity pIC50 (converted). In short, it runs like this:
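Resazurin-based fluorescence (540 nm ex/590 nm em) measured after 4-day compound treatment plus 24 hrs dye incubation at 37° C. Cells plated at 4.5×10^3 cells/ml, adhered 24 hr first. pIC50 from probit-derived IC50 on % viable cells versus untreated, triplicate wells.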

T1 sequence (P09874 whole entry): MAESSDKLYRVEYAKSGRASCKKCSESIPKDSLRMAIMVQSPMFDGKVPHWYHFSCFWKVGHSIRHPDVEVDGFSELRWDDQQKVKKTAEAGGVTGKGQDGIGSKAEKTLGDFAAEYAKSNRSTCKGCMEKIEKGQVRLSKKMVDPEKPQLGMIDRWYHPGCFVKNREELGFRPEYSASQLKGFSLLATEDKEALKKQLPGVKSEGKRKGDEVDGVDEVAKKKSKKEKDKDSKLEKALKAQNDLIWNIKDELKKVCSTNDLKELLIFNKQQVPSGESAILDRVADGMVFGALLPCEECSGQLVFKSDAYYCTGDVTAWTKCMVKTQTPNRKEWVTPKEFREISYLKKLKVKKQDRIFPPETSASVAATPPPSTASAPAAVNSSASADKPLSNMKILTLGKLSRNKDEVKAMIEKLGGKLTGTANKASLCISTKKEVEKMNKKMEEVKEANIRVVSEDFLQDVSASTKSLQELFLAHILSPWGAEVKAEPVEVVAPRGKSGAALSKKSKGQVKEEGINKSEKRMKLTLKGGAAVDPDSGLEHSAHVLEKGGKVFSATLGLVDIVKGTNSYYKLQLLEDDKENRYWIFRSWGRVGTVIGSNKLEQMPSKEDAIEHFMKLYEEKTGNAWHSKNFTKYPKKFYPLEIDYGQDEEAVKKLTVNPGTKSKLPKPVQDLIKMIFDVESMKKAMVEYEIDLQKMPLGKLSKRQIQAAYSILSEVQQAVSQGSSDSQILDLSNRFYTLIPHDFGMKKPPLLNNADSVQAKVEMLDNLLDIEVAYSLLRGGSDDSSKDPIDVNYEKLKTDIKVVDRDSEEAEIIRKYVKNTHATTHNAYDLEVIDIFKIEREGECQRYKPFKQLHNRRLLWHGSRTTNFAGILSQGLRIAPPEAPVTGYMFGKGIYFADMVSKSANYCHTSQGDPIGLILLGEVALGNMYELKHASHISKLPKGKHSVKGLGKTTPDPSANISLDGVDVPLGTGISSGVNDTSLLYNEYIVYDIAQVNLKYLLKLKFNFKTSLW

Regarding `CCc1cc2ccc(C(C)(C#N)Cc3ncc(C)c(OC)c3C)cc2[nH]c1=O` (stereo not drawn) [Compound 311], the IC50 at Human PARP-1 enzyme was 126 nM; with PC-3 cells, 7940 nM.
For `CCc1cc2ccc(C(C)(C#N)Cc3ccc(C)nc3)cc2[nH]c1=O` (stereo not drawn) [Compound 327], in that order: 100 nM and 7940 nM.
As for `CCc1cc2ccc(C(C)(C#N)Cc3cccc(C#N)n3)cc2[nH]c1=O` (stereo not drawn) [Compound 329], the values for the IC50 at Human PARP-1 enzyme and with PC-3 cells were 79.4 nM and 501 nM, respectively.
For the compound `CCCn1ccnc1CC(C)(C#N)c1ccc2cc(CC)c(=O)[nH]c2c1` (stereo not drawn) [Compound 335], the results for the IC50 on Human PARP-1 enzyme and with PC-3 cells were 251 nM and 10000 nM, respectively.
For `CCc1cc2ccc(C(C)(C#N)Cc3ccc4ccccc4n3)cc2[nH]c1=O` (stereo not drawn) [Compound 336], in that order: 79.4 nM and 2510 nM.
For `CCc1cc2ccc(C(C)(C#N)Cc3nccn3CC)cc2[nH]c1=O` (stereo not drawn) [Compound 337], the IC50 is 398 nM on Human PARP-1 enzyme and 5010 nM with PC-3 cells.
On to `CCc1cc2ccc(C(C)(C#N)Cc3nc4ccccc4n3C)cc2[nH]c1=O` (stereo not drawn) [Compound 338], for which the IC50 on Human PARP-1 enzyme was 200 nM; in the test with PC-3 cells, 2000 nM.
As to `CCc1cc2ccc(C(C)(C#N)Cc3cccc(C)n3)cc2[nH]c1=O` (stereo not drawn) [Compound 343], the IC50 is 79.4 nM on Human PARP-1 enzyme and 2000 nM with PC-3 cells.
Turning to `CCc1cc2ccc(C(C)(C#N)Cc3cccc(Br)n3)cc2[nH]c1=O` (stereo not drawn) [Compound 344], the IC50 is 63.1 nM at Human PARP-1 enzyme and 631 nM in the test on PC-3 cells.
As for `CCc1cc2ccc(C(C)(C#N)Cc3cccc(CO)n3)cc2[nH]c1=O` (stereo not drawn) [Compound 345], the IC50 was 158 nM on Human PARP-1 enzyme and 3980 nM with PC-3 cells.
Turning to `CCc1cc2ccc(C(C)(C#N)Cc3ccc(OC)nc3)cc2[nH]c1=O` (stereo not drawn) [Compound 352], the IC50 at Human PARP-1 enzyme was 100 nM; in the test with PC-3 cells, 2510 nM.
Regarding `CCc1cc2ccc(C(C)(C#N)Cc3cccc(OC)n3)cc2[nH]c1=O` (stereo not drawn) [Compound 353], the IC50 was 79.4 nM on Human PARP-1 enzyme and 251 nM in the test on PC-3 cells.
For `CCc1cc2ccc(C(C)(C#N)Cc3cnc(OC)nc3Cl)cc2[nH]c1=O` (stereo not drawn) [Compound 356], in that order: 126 nM and 794 nM.
With `CCc1cc2ccc(C(C)(C#N)Cc3cnc(OC)nc3OC)cc2[nH]c1=O` (stereo not drawn) [Compound 357], the IC50 on Human PARP-1 enzyme was 79.4 nM; in the test with PC-3 cells it was 398 nM.
For `CCc1cc2ccc(C(C)(C#N)Cc3cc(OC)nc(OC)n3)cc2[nH]c1=O` (stereo not drawn) [Compound 358], the IC50 at Human PARP-1 enzyme was 50.1 nM; with PC-3 cells, 2510 nM.
In the case of `CCc1cc2ccc(C(C)(C#N)Cc3nc(Cl)cc(N(C)C)n3)cc2[nH]c1=O` (stereo not drawn) [Compound 359], the IC50 is 79.4 nM on Human PARP-1 enzyme and 501 nM in the test on PC-3 cells.
With `CCc1cc2ccc(C(C)(C#N)Cc3nccc(OC)n3)cc2[nH]c1=O` (stereo not drawn) [Compound 360], the IC50 is 100 nM at Human PARP-1 enzyme and 1260 nM in the test with PC-3 cells.
Turning to `CCc1cc2ccc(C(C)(C#N)Cc3cc(OCCOC)nc(C)n3)cc2[nH]c1=O` (stereo not drawn) [Compound 363], the IC50 is 158 nM at Human PARP-1 enzyme and 5010 nM in the test with PC-3 cells.
In the case of `CCc1cc2ccc(C(C)(C#N)Cc3cc(N(C)C)nc(Cl)n3)cc2[nH]c1=O` (stereo not drawn) [Compound 364], the IC50 at Human PARP-1 enzyme is 158 nM; in the test with PC-3 cells, 794 nM.
With `CCc1cc2ccc(C(C)(C#N)Cc3cc(OC)nc(C)n3)cc2[nH]c1=O` (stereo not drawn) [Compound 366], the IC50 at Human PARP-1 enzyme is 126 nM; in the test with PC-3 cells it was 631 nM.
As for `CCc1cc2ccc(C(C)(C#N)Cc3cc(OCCOC)nc(Cl)n3)cc2[nH]c1=O` (stereo not drawn) [Compound 367], the IC50 at Human PARP-1 enzyme was 79.4 nM; in the test on PC-3 cells, 3980 nM.
Regarding `CCc1cc2ccc(C(C)(C#N)Cc3nc(C)cc(C)n3)cc2[nH]c1=O` (stereo not drawn) [Compound 368], the IC50 at Human PARP-1 enzyme was 316 nM; in the test on PC-3 cells, 1260 nM.
The matching figures for `CCc1cc2ccc(C(C)(C#N)Cc3nccc(OCCOC)n3)cc2[nH]c1=O` (stereo not drawn) [Compound 369]: 126 nM and 6310 nM.
As to `CCc1cc2ccc(C(C)(C#N)Cc3nc(Cl)cc(OCCOC)n3)cc2[nH]c1=O` (stereo not drawn) [Compound 370], the results for the IC50 at Human PARP-1 enzyme and with PC-3 cells were 200 nM and 2510 nM, respectively.
For `CCc1cc2ccc(C(C)(C#N)Cc3cc(Cl)nc(Cl)c3)cc2[nH]c1=O` (stereo not drawn) [Compound 372], in that order: 100 nM and 501 nM.
For `CCc1cc2ccc(C(C)(C#N)Cc3cc(OC)ccn3)cc2[nH]c1=O` (stereo not drawn) [Compound 373], in that order: 100 nM and 10000 nM.
Turning to `CCc1cc2ccc(C(C)(C#N)CC3CCc4ccccc4O3)cc2[nH]c1=O` (stereo not drawn) [Compound 399], the IC50 was 316 nM at Human PARP-1 enzyme and 631 nM in the test with PC-3 cells.

The values are drawn from US8778966B2, “Quinolinone derivatives as PARP and tank inhibitors” (Janssen Pharmaceutica, NV, priority 2007, dated 2014).
